The record followed here is US20250042889A1, “3CLPRO PROTEASE INHIBITOR” (SHANGHAI QILU PHARMACEUTICAL RESEARCH AND DEVELOPMENT …, priority 2021, published 2025).

The assay deals with SARS-COV-2 3CLpro/Mpro protease (Severe acute respiratory syndrome coronavirus 2 (2019-nCoV) (SARS-CoV-2), UniProt P0DTD1). The assay is described as follows: Inhibitory effect on SARS-COV-2 3CLpro/Mpro protease by fluorescence resonance energy transfer. The class given is biochemical. To be noted: activity intervals A-D, read-out: IC50 (nM), Inhibition on SARS-CoV-2 3CLpro/Mpro protease.
As for `CNc1cncc(C(=O)N[C@H]2CCOC[C@H]2Nc2c(C(=O)N3CCCCC3)cc(Br)cc2[N+](=O)[O-])c1` [Example 201], the IC50 lay within 10 to 50 nM.

Take `CNc1cncc(C(=O)N2CCC[C@@H](Nc3c(C(=O)N4CCn5ccnc5C4)cc(Br)cc3[N+](=O)[O-])C2)c1` [Example 352]: the IC50 fell in the range of 10 to 50 nM.

For the compound `C[C@@H]1CN(C(=O)c2cc(Br)cc([N+](=O)[O-])c2N[C@@H]2CCCN(C(=O)c3cncc4[nH]cnc34)C2)C[C@H](C)O1` [Example 151], the IC50 is 10 to 50 nM.

`CNc1cncc(C(=O)N2CCC[C@@H](Nc3c(C(=O)N4CCC5(CC4)CNCC(F)(F)O5)cc(Br)cc3[N+](=O)[O-])C2)c1` [Example 338]: the IC50 lay within 10 to 50 nM.

Take `O=C(c1cc(Br)cc([N+](=O)[O-])c1N[C@@H]1CCN(C(=O)c2cncc3ccccc23)C1)N1CCCC1` [Example 40]: the IC50 lay within 10 to 50 nM.

As to `C[C@@H]1CN(C(=O)c2cc(Br)cc([N+](=O)[O-])c2N[C@@H]2CCCN(C(=O)C3CCNC(=O)C3)C2)C[C@H](C)O1` (stereo partly drawn) [Example 18, 4-((R)-3-((4-bromo-2-((2R,6S)-2,6-dimethylmorpholin-4-carbonyl)-6-nitrophenyl)amino)piperidin-1-carbonyl)piperidin-2-one], the IC50 is 100 to 200 nM.

For the compound `CNc1cncc(C(=O)N2C[C@H](Nc3c(C(=O)N4C[C@@H](C)O[C@@H](C)C4)cc(Br)cc3[N+](=O)[O-])C[C@H]2C#Cc2cnn(C)c2)c1` [Example 392], the IC50 was in the range of 50 to 100 nM.

Regarding `CNc1cncc(C(=O)N2CCC[C@@H](Nc3c(C(=O)N4CCc5ccsc5C4)cc(Br)cc3[N+](=O)[O-])C2)c1` [Example 267], the IC50 is 10 to 50 nM.

For `Cc1cc(C(=O)N2CC(Nc3c(C(=O)N4CCC5(CCCCC5)CC4)cc(Br)cc3[N+](=O)[O-])C(F)(F)C2)cc(=O)[nH]1` (stereo not drawn) [Example 160], the IC50 fell in the range of 10 to 50 nM.

For the compound `Cc1cc(C(=O)N2C[C@H](Nc3c(C(=O)N4CC5C(C4)C5(C)C)cc(Br)cc3[N+](=O)[O-])C3(CC3)C2)cc(=O)[nH]1` (stereo partly drawn) [Example 88], the IC50 was in the range of 10 to 50 nM.

`CNc1cncc(C(=O)N2CCC[C@@H](Nc3c(C(=O)N4CCC(N5CCOCC5)CC4)cc(Br)cc3[N+](=O)[O-])C2)c1` [Example 19, (R)-(5-bromo-2-((1-(5-(methylamino)nicotinoyl)piperidin-3-yl)amino)-3-nitrophenyl)(4-morpholinopiperidin-1-yl)methanone]: the IC50 fell in the range of 10 to 50 nM.

As for `CNc1cncc(C(=O)N2C[C@H](Nc3c(C(=O)N4C[C@@H](C)O[C@@H](C)C4)cc(Br)cc3[N+](=O)[O-])C[C@H]2C#Cc2ccn(C)n2)c1` [Example 414], the IC50 lay within 100 to 200 nM.

On to `O=C(c1cc(Br)cc([N+](=O)[O-])c1N[C@@H]1CCCN(C(=O)[C@H]2CNCC(F)(F)C2)C1)N1CC2CCC(C1)O2` [Example 332], for which the IC50 was in the range of 10 to 50 nM.

For the compound `CNc1cncc(C(=O)N2C[C@H](Nc3c(C(=O)N4CCC(C)(C)CC4)cc(Br)cc3[N+](=O)[O-])C3(CC3)C2)c1` [Example 87], the IC50 lay in the range of 10 to 50 nM.

With `O=C(c1cc(Br)cc([N+](=O)[O-])c1N[C@@H]1CCCN(C(=O)c2cc(=O)[nH]c3ccccc23)C1)N1CCC(F)(F)CC1` [Example 54], the IC50 fell in the range of 10 to 50 nM.

For the compound `CNc1cncc(C(=O)N2C[C@H](Nc3c(C(=O)N4C[C@@H](C)O[C@@H](C)C4)cc(Br)cc3[N+](=O)[O-])[C@@H](OCc3nccs3)C2)c1` [Example 461], the IC50 lay in the range of 10 to 50 nM.

In the case of `O=C(c1cc(Br)cc([N+](=O)[O-])c1N[C@@H]1CCCN(C(=O)c2cnnc3ccccc23)C1)N1CCCCC1` [Example 11, (R)-(5-bromo-2-((1-(4-cinnolin-carbonyl)piperidin-3-yl)amino)-3-nitrophenyl)(piperidin-1-yl)methanone], the IC50 fell in the range of 50 to 100 nM.

`CNc1cncc(C(=O)N2C[C@H](Nc3c(C(=O)N4C[C@@H](C)O[C@@H](C)C4)cc(Br)cc3[N+](=O)[O-])C[C@H]2C(=O)NC2CCN(CCOC)CC2(F)F)c1` (single isomer, unassigned) [Compound 453-P1]: the IC50 is 50 to 100 nM.
